# In US20260365670A1, “EGFR INHIBITORS AND USES THEREOF” (DIZAL (JIANGSU) PHARMACEUTICAL CO., LTD., priority 2022, published 2026):
# Read-outs that look alike come from different tables or passages of the source.
# Assays:
# [1] = target: T1, EGFR[T790M/C797S/L858R] (Homo sapiens, UniProt P00533, C797S/L858R/T790M); experiment: Inhibition of EGFR[T790M/C797S/L858R] biochemical enzymatic activity (HTRF); conditions: 1 mM ATP
# T1 construct: purchased Carna Bio
# Procedure: (§1) Biological Example 1: Inhibition of EGFR WT and Mutant Biochemical Enzymatic Activity
# (§2) The inhibition potency of compounds against these enzymes was assessed using Homogenous Time Resolved Fluorescence approach (HTRF, CisBio. Cat No. 62TKOPEJ).
# (§3) Inhibitory effects of the compounds were determined by measuring the enzymatic activity of EGFR enzyme phosphorylates 1 μM TK Substrate-biotin in the presence of 1 mM adenosine-5′-triphosphate (ATP) and varying concentrations of the test compound. The enzyme reaction buffer contains 5 mM MgCl2, 1 mM MnC12, 0.01% CHAPS, 1 mM dithiothreitol (DTT), 0.5% dimethylsulfoxide (DMSO), and 1× supplemented enzymatic buffer. The WT and mutant EGFR enzymes (SignalChem) were added to plates containing inhibitors, followed by activation of the kinase reaction by addition of ATP and peptide substrates. After incubation for 1 h at room temperature, the reaction was stopped by the addition of the detection reagent mix containing EDTA. The fluorescence was measured at 615 nm and 665 nm, respectively with excitation wavelength at 320 nm. The calculated signal ratio of 665 nm/615 nm is proportional to the kinase activity. The concentration of compound producing 50% inhibition of the respective kinase (IC50) was calculated using four-parameter logistic fit with XL-FIT.
# [2] = target: T2, EGFR Exon19Del (Homo sapiens, UniProt P00533, DEL746-750); experiment: Inhibition of EGFR Exon19Del biochemical enzymatic activity (HTRF); conditions: read-out: IC50 @Del19
# T2 construct: purchased Carna Bio
# T2 sequence (P00533 with tags, fused parts or gaps DEL746-750 limits assumed): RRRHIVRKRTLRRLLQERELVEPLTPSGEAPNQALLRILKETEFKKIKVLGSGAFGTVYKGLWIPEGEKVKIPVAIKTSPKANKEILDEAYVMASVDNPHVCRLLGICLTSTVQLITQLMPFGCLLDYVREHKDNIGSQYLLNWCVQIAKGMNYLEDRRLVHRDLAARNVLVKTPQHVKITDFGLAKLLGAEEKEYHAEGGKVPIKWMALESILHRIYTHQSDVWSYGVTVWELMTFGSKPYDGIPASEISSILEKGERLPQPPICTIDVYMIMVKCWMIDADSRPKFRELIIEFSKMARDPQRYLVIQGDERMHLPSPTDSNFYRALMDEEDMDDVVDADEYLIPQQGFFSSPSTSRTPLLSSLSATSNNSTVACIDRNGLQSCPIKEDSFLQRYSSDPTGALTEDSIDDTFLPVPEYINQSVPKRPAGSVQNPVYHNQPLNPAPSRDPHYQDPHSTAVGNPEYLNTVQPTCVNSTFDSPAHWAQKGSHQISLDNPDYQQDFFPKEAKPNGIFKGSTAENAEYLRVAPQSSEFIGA
# Procedure: as §1, §2, §3
# [3] = target: T3, EGFR L858R/T790M (Homo sapiens, UniProt P00533, L858R/T790M); experiment: Inhibition of EGFR L858R/T790M biochemical enzymatic activity (HTRF); conditions: 1 mM ATP
# T3 construct: purchased Carna Bio
# Procedure: as §1, §2, §3
# [4] = target: T4, EGFR L858R (Homo sapiens, UniProt P00533, L858R); experiment: Inhibition of EGFR L858R biochemical enzymatic activity (HTRF); conditions: 1 mM ATP
# T4 construct: purchased Carna Bio
# T4 sequence (P00533 25-1210 L858R): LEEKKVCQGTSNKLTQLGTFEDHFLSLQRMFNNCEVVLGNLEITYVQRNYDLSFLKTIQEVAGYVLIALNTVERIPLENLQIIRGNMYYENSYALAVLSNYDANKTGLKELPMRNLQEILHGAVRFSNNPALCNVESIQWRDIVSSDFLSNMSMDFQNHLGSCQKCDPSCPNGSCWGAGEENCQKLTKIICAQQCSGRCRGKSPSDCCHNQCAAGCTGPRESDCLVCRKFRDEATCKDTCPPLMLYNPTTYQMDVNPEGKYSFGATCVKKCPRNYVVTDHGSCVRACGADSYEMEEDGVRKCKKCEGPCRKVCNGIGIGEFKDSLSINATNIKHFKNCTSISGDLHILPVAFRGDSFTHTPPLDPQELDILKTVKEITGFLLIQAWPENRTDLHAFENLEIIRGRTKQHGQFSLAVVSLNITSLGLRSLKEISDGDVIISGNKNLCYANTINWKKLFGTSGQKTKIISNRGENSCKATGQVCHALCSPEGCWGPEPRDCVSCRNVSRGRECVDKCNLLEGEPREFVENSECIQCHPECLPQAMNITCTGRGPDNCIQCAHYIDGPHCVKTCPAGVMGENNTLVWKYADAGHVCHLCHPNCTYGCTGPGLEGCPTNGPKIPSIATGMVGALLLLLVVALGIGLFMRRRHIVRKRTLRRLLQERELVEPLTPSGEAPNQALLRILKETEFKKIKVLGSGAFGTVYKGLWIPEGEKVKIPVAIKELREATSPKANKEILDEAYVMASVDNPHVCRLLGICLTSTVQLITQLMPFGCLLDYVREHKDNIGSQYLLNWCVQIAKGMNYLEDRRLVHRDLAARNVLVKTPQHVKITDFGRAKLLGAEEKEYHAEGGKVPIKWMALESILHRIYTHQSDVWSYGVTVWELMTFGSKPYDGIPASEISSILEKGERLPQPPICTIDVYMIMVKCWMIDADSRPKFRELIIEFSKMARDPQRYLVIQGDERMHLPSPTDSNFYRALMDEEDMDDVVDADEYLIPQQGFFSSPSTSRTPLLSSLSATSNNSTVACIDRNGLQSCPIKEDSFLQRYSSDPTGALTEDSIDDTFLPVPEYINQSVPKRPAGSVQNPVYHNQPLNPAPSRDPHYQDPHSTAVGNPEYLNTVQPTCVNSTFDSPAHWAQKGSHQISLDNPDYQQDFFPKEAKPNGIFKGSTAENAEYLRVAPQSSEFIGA
# Procedure: as §1, §2, §3
# [5] = target: T5, EGFR wild type (Homo sapiens, UniProt P00533); experiment: Inhibition of EGFR wild type biochemical enzymatic activity (HTRF); conditions: 1 mM ATP
# T5 construct: purchased Carna Bio
# Procedure: as §1, §2, §3
# [6] = system: Ba/F3 cells expressing EGFR mutations; experiment: Cell proliferation assay, Ba/F3 cells expressing EGFR mutations (CellTiter-Glo, 72 hours); format: cell-based
# Procedure: Biological Example 2: Cell Proliferation Assays
# Ba/F3 cells expressing EGFR mutations were seeded in 384-well plates at 5000 cells/well in RPMI1640 medium containing […]. PC-9 at 500 cells/well was seeded into 384-well plates in RPMI1640 medium with 10% FBS. After overnight incubation, the assay plates were dosed with compounds at a series of concentrations. Alongside dosing the assay plates, the day 0 plate was processed using CellTiter-Glo® Luminescent Cell Viability Assay (Promega) to measure the number of viable cells (G0). The assay plates were further incubated for 72 hours and the number of viable cells (G3) was measured. The percentage of proliferation was calculated as: […]=100×(G3 value of sample well−G0 value)/(G3 value of DMSO control−G0 value). The concentration of compound producing 50% proliferation inhibition (GI50) was further calculated in best-fit curves using XLFit software. N/A=not available.
# [7] = target: T6, EGFR (d746-750 C797S) (Homo sapiens, UniProt P00533, C797S/DEL746-750); experiment: Inhibition of EGFR (d746-750 C797S) biochemical enzymatic activity (HTRF); conditions: 1 mM ATP
# T6 construct: purchased signalchem
# T6 sequence (P00533 with tags, fused parts or gaps DEL746-750/C797S limits assumed): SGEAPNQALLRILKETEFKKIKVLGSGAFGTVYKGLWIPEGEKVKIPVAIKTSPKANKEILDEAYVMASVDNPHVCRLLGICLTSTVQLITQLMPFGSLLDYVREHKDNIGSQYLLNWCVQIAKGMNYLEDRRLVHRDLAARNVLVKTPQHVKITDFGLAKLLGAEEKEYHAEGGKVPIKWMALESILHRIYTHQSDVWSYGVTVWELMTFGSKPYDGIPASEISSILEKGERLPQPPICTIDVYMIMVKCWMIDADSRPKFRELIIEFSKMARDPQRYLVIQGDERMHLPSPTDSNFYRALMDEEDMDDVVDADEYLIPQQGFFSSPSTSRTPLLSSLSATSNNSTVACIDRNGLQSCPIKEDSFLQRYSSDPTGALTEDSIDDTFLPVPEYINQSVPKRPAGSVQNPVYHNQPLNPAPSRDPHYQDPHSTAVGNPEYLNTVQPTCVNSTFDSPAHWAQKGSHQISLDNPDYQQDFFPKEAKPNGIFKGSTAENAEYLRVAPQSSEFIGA
# Procedure: as §1, §2, §3
# [8] = system: PC-9; experiment: Cell proliferation assay, PC-9 cells (CellTiter-Glo, 72 hours); format: cell-based; conditions: PC9 cells
# Procedure, shortened: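 GI50 is the concentration giving 50% proliferation inhibition. Growth for this was normalised to a baseline viability reading taken when compound was added, and to DMSO wells. PC-9 (500 cells/well) and mutant-EGFR Ba/F3 (5000 cells/well) are treated after overnight seeding in RPMI1640-based medium.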
# [9] = target: T7, EGFR (C797S L858R) (Homo sapiens, UniProt P00533, C797S/L858R); experiment: Inhibition of EGFR (C797S L858R) biochemical enzymatic activity (HTRF); conditions: 1 mM ATP
# T7 construct: purchased signalchem
# T7 sequence (P00533 25-1210 C797S/L858R): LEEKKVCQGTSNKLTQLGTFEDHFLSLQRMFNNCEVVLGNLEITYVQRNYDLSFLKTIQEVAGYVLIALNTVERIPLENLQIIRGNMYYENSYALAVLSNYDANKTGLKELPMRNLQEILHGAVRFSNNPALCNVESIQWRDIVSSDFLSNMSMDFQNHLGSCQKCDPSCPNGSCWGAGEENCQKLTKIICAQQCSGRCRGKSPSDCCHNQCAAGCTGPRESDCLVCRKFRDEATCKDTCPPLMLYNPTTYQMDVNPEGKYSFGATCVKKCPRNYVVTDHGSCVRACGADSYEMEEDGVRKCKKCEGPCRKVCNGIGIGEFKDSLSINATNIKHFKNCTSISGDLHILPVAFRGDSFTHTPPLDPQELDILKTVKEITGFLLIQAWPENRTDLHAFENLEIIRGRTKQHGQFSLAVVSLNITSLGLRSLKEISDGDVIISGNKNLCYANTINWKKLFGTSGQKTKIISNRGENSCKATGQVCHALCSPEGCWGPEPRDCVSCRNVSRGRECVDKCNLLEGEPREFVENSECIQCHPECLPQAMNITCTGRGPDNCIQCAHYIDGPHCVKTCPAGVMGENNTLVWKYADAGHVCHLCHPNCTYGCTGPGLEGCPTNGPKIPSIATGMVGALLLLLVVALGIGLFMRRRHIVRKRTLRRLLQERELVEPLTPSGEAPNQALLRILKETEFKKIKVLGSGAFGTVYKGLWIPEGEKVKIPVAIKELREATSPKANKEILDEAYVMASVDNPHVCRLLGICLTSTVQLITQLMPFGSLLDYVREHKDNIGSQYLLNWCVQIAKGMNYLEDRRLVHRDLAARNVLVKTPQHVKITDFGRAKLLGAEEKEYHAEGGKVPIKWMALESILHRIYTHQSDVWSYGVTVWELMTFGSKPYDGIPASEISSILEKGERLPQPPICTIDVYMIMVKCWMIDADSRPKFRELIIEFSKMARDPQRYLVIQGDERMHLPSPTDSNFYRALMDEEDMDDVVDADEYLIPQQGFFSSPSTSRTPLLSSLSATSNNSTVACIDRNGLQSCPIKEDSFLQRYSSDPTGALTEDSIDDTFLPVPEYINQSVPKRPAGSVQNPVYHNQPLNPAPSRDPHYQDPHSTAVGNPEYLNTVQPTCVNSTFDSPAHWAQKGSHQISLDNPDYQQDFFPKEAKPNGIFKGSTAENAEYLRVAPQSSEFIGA
# Procedure: as §1, §2, §3
# [10] = target: T8, EGFR[T790M/C797S/d746-750] (Homo sapiens, UniProt P00533, C797S/DEL746-750/T790M); experiment: Inhibition of EGFR[T790M/C797S/d746-750] biochemical enzymatic activity (HTRF)
# T8 construct: purchased Carna Bio
# T8 sequence (P00533 with tags, fused parts or gaps DEL746-750/T790M/C797S limits assumed): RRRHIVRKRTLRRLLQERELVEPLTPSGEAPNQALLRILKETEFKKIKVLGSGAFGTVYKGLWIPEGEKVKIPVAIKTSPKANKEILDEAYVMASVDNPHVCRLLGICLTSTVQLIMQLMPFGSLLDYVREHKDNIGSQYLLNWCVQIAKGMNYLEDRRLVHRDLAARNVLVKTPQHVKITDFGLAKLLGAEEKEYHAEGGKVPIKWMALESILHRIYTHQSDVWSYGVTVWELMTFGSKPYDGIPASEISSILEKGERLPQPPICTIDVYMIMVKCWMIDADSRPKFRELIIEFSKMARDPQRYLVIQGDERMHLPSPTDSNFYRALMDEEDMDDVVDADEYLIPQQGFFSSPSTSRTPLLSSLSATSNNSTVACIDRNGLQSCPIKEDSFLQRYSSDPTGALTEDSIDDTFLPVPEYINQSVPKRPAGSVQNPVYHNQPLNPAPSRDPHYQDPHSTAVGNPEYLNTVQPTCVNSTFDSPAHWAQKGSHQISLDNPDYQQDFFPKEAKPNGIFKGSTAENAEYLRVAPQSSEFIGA
# Procedure: as §1, §2, §3
# [11] = target: T9, EGFR Exon19Del/T790M (Homo sapiens, UniProt P00533, DEL746-750/T790M); experiment: Inhibition of EGFR Exon19Del/T790M biochemical enzymatic activity (HTRF); conditions: 1 mM ATP
# T9 construct: purchased Carna Bio
# T9 sequence (P00533 with tags, fused parts or gaps DEL746-750/T790M limits assumed): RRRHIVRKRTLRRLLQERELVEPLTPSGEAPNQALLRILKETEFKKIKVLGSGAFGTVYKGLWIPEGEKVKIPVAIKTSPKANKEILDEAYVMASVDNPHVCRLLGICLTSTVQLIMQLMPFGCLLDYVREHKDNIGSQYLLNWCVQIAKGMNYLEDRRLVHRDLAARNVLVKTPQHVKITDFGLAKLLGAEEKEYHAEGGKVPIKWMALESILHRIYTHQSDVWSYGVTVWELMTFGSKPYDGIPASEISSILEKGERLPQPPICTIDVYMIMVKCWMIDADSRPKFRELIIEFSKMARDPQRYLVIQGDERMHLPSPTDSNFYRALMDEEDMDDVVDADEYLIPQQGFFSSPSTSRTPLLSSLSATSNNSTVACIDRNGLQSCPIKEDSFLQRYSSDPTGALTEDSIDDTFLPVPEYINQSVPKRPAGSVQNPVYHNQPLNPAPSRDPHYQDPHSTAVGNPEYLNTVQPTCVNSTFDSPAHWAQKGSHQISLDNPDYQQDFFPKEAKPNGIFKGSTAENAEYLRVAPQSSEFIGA
# Procedure: as §1, §2, §3
# [12] = EGFR T790M-C797S-L858R, 1 h, room temperature, read-out: IC50 (nM) @T790M- C797S - L858R
# [13] = EGFR Del19, 1 mM ATP, 1 h, room temperature
# [14] = EGFR L858R-T790M, 1 h, room temperature, read-out: IC50 (nM) @L858R-T790M
# [15] = 1 h, room temperature, read-out: IC50 (nM) @L858R
# [16] = EGFR WT, 1 h, room temperature, read-out: IC50 (nM) @WT
# [17] = EGFR Del19-C797S, 1 h, room temperature, read-out: IC50 (nM) @Del19-C797S
# [18] = EGFR L858-C797S, 1 h, room temperature, read-out: IC50 (nM) @L858-C797S
# [19] = EGFR T790M-C797S-Del19, 1 mM ATP, 1 h, room temperature, read-out: IC50 (nM) @T790M - C797S - Del19
# [20] = EGFR Del19-T790M, 1 h, room temperature, read-out: IC50 (nM) @Del19-T790M
# [21] = BaF3 cells, EGFR DEL19-C797S, CellTiter-Glo, read-out: DEL19-C797S/BaF3 GI50
# [22] = BaF3 cells, EGFR DEL19-T790-C797S, CellTiter-Glo, read-out: DEL19-T790-C797S/BaF3 GI50
# [23] = BaF3 cells, EGFR L858R, CellTiter-Glo, read-out: L858R/BaF3 GI50
# [24] = BaF3 cells, EGFR L858R-C797S, CellTiter-Glo, read-out: L858R-C797S/BaF3 GI50
# [25] = BaF3 cells, EGFR L858R-T790-C797S, CellTiter-Glo, read-out: L858R-T790-C797S/BaF3 GI50
# [26] = BaF3 cells, EGFR L858R-T790M, CellTiter-Glo, read-out: L858R-T790M/BaF3 GI50
# [27] = EGFR DEL19-T790M, CellTiter-Glo, read-out: DEL19-T790M GI50
# [28] = CellTiter-Glo, read-out: PC9 GI50
"IC50 [1, 12] [nM]","IC50 [2, 13] [µM]","IC50 [3, 14] [nM]","IC50 [4, 15] [nM]","IC50 [5, 16] [nM]","IC50 [7, 17] [nM]","IC50 [9, 18] [nM]","IC50 [10, 19] [nM]","IC50 [11, 20] [nM]","GI50 [6, 21] [µM]","GI50 [6, 22] [µM]","GI50 [6, 23] [µM]","GI50 [6, 24] [µM]","GI50 [6, 25] [µM]","GI50 [6, 26] [µM]","GI50 [6, 27] [µM]","GI50 [8, 28] [µM]",Compound,also measured
3.3,0.0017,3.7,7,55,1.5,4.7,2.7,3.1,,,,,,,,,"CN(C)CCC1CN(c2ccc3nc4n(c3c2)C23CCC(CN(CCOc5c(cnn5C)-c5cc(cn(C)c5=O)C(=O)N4)C2)C3)C1 (single isomer, unassigned) [Example A95B]","GI50 ([6]; Mus musculus, BaF3, 72 h, BaF3 cells, EGFR DEL19-C797S, CellTiter-Glo, read-out: DEL19-C797S/BaF3 GI50): 0.095 µM; GI50 ([6]; Mus musculus, BaF3, 72 h, BaF3 cells, EGFR DEL19-T790-C797S, CellTiter-Glo, read-out: DEL19-T790-C797S/BaF3 GI50): 0.228 µM; GI50 ([6]; Mus musculus, BaF3, 72 h, BaF3 cells, EGFR L858R, CellTiter-Glo, read-out: L858R/BaF3 GI50): 0.357 µM; GI50 ([6]; Mus musculus, BaF3, 72 h, BaF3 cells, EGFR L858R-C797S, CellTiter-Glo, read-out: L858R-C797S/BaF3 GI50): 0.436 µM; GI50 ([6]; Mus musculus, BaF3, 72 h, BaF3 cells, EGFR L858R-T790-C797S, CellTiter-Glo, read-out: L858R-T790-C797S/BaF3 GI50): 0.574 µM; GI50 ([6]; Mus musculus, BaF3, 72 h, BaF3 cells, EGFR L858R-T790M, CellTiter-Glo, read-out: L858R-T790M/BaF3 GI50): 1.08 µM; GI50 ([6]; Mus musculus, BaF3, 72 h, EGFR DEL19-T790M, CellTiter-Glo, read-out: DEL19-T790M GI50): 0.177 µM; GI50 ([8]; Homo sapiens, PC-9, 72 h, CellTiter-Glo, read-out: PC9 GI50): 2.46 µM"
> 5000,0.235,> 5000,1270,> 5000,391,3370,2080,3410,0.095,0.34,0.047,0.173,0.049,0.343,0.171,0.297,"CN1C2CC1CN(c1ccc3nc4n(c3c1)C13CCC(CN(CCOc5c(cnn5C)-c5cc(cn(C)c5=O)C(=O)N4)C1)C3)C2 (single isomer, unassigned) [Example A98A]",
> 5000,0.381,> 5000,2600,> 5000,330,2770,4190,> 5000,0.1,0.341,0.617,0.263,0.652,0.246,0.363,0.683,"CN1CC2CC1CN2c1ccc2nc3n(c2c1)C12CCC(CN(CCOc4c(cnn4C)-c4cc(cn(C)c4=O)C(=O)N3)C1)C2 (single isomer, unassigned) [Example A105A]",
,,,,,,,,,,,,,,,,,"Cc1cc2cc(n1)-c1cnn(C)c1OCCN1CCOCC(C1)n1c(nc3ccccc31)NC2=O (single isomer, unassigned) [Example B7A, 15,21-dimethyl-23,29-dioxa-2,9,11,16,20,21,26-heptaazahexacyclo[24.4.1.1^{13,17}.0^{2,10}.0^{3,8}.0^{18,22}]dotriaconta-3,5,7,9,13(32),14,16,18(22),19-nonaen-12-one]","IC50 ([1]; EGFR[T790M/C797S/L858R], 1 h at room temperature, read-out: IC50 @T790M- C797S - L858R): 1650 nM; IC50 ([2]; EGFR Exon19Del, 1 mM ATP, 1 h at room temperature): 1.21 µM; IC50 ([3]; EGFR L858R/T790M, 1 h at room temperature, read-out: IC50 @L858R-T790M): 2630 nM; IC50 ([4]; 1 h at room temperature, read-out: IC50 @L858R): > 5000 nM; IC50 ([5]; EGFR wild type, 1 h at room temperature, read-out: IC50 @WT): > 5000 nM; GI50 ([6]; Mus musculus, BaF3, 72 h, BaF3 cells, EGFR DEL19 - C797S, read-out: GI50 DEL19 - C797S/BaF3): 0.228 µM; GI50 ([6]; Mus musculus, BaF3, 72 h, BaF3 cells, EGFR DEL19 - T790-C797S, read-out: GI50 DEL19 - T790-C797S/BaF3): 0.186 µM; GI50 ([6]; Mus musculus, BaF3, 72 h, BaF3 cells, EGFR L858R - C797S, read-out: GI50 L858R - C797S/BaF3): 0.189 µM; GI50 ([6]; Mus musculus, BaF3, 72 h, BaF3 cells, EGFR L858R - T790-C797S, read-out: GI50 L858R - T790-C797S/BaF3): 0.295 µM; GI50 ([6]; Mus musculus, BaF3, 72 h, BaF3 cells, EGFR L858R - T790M, read-out: GI50 L858R - T790M/BaF3): 0.383 µM; GI50 ([6]; Mus musculus, BaF3, 72 h, BaF3 cells, EGFR L858R, read-out: GI50 L858R/BaF3): 0.934 µM; GI50 ([6]; Mus musculus, BaF3, 72 h, EGFR DEL19 - T790M, read-out: GI50 DEL19 - T790M): 0.265 µM; IC50 ([7]; EGFR (d746-750 C797S), 1 h at room temperature, read-out: IC50 @Del19-C797S): 611 nM; GI50 ([8]; Homo sapiens, PC-9, 72 h, read-out: GI50 PC9): 0.427 µM; IC50 ([9]; EGFR (C797S L858R), 1 h at room temperature, read-out: IC50 @L858-C797S): > 5000 nM; IC50 ([10]; EGFR[T790M/C797S/d746-750], 1 mM ATP, 1 h at room temperature, read-out: IC50 @T790M - C797S - Del19): 62 nM; IC50 ([11]; EGFR Exon19Del/T790M, 1 h at room temperature, read-out: IC50 @Del19-T790M): 104 nM"
